Results from PMC10704561, “Multi-Photon-Sensitive Chromophore for the Photorelease of Biologically Active Phenols” (ACS Chemical Neuroscience, 2023).
In brackets after ≈: the same amount, converted by molar mass. Read-outs that look alike come from different tables or passages of the source.

What was measured:
[1] = Solubility in KMOPS buffer pH 7.2; format: physicochemical
From the text: The photochemical and photophysical properties were investigated in a simulated physiological buffer (KMOPS, pH 7.2) and compared with the literature data for CyHQ-O-DA (Table 1). […] For this derivative, 10% CH3CN in the buffer was used to ensure complete solubilization for the photochemistry experiments. The spontaneous hydrolysis in the dark was monitored over a period of 7 days and no significant hydrolysis was detected for any of the constructs. The molar absorptivity at the wavelength used for 1PE photolysis (ε365) ranged between 4800 and 5670 M^–1 cm^–1, in line with the values of most CyHQ-based PPGs.
The photochemical behavior of constructs 4–7c was investigated in KMOPS buffer at the concentration of 0.1 mM. Under these conditions, all compounds were soluble except for the VNA analogue 6c, which, because of the lipophilicity of the vanilloid, required 20% CH3CN for full solubilization. The stability toward hydrolysis in the dark was monitored over a week, and no significant decomposition was detected for any probe. All constructs were successfully photolyzed after light exposure, as shown in the time courses of the photolysis reactions (Figure 3). MeO-CyHQ constructs 4c, 6c, and 7c were photoactivated with excellent quantum efficiency and sensitivities, and good chemical yields were obtained by monitoring the appearance of the released bioeffector over the time course of the photoreaction (Table 1). […] We believe this effect is due to the presence of the thiophene ring, a well-known photoactive group,[51] which could act as an energy sink in the excited state and quench the photochemical reaction.

[2] = Spontaneous hydrolysis in the dark; format: physicochemical; settings: 0.1 mM in KMOPS pH 7.2, dark, 7 days
Protocol: A 0.1 mM solution of each compound was prepared in KMOPS buffer. For compounds 3d and 6c, 20% CH3CN was used as a cosolvent. The solutions were kept in the dark for 7 days, and the percentage of the starting materials was determined by periodic HPLC analysis (Supporting Information, HPLC Data).

[3] = UV-vis spectra and molar extinction coefficient in KMOPS buffer; format: physicochemical; settings: 0.1 mM in KMOPS buffer, pH 7.2 (3d, 6c: 10 or 20% CH3CN added)
Protocol: A 100 μM solution of each protected phenol was prepared in KMOPS buffer (20% CH3CN was used as a cosolvent for compounds 3d and 6c). The UV–vis spectra of these solutions were recorded at between 250 and 500 nm. All of the measurements were repeated in triplicate, and the absorbance values were averaged. The Beer–Lambert law, ε = A(cl)^−1, was used for the calculation of ε values at λ = 365 nm, where A is the absorbance value measured at 365 nm, c is the concentration of the sample, and l is the cuvette length (1 cm). See the Supporting Information for the spectra.

[4] = One-photon excitation (1PE) photolysis with 365 nm LED, HPLC quantification; format: physicochemical; settings: for t90% (time required to consume 90% of the starting material): 1PE 365 nm LED, lamp intensity differs per compound (Table S1)
Protocol: A 0.1 mM solution (3 mL) of each protected phenol in KMOPS buffer (10 or 20% CH3CN was used as a cosolvent for 3d and 6c) was placed in a 3 mL quartz cuvette along with a stirring bar. The solution was irradiated with stirring using a 365 nm LED lamp (Cairn OptoLED Lite). At different time intervals, 80 μL aliquots of the solution were taken out and analyzed by uHPLC (Agilent 1290 Infinity series), monitoring the AUC at 320 nm (Supporting Information, HPLC Data). An external standard calibration method of quantification was used for the calibration of the samples. The experiments were repeated in sets of three. A gradient elution with a flux rate of 0.3 mL/min using a mobile phase comprising A = 0.1% trifluoroacetic acid in water and B = acetonitrile (starting from 5% B to 100% over 10 min and re-equilibrating to 5% B before the next run) was used for the separations. A comparison of the AUC with the calibration curves of the substrates (obtained from known concentration) determined the percentages of the remaining starting materials. The percentages of the remaining starting materials were plotted versus time. The time to 90% of decomposition of the substrate (t90% values) was obtained by fitting a single exponential decay curve to the data using DeltaGraph (Red Rock Software). The following equation was used to calculate the quantum yield (Φu) of each photolysis reaction:[42],[47],[56],[57] Φu = (I σ t90%)^−1, where I is the irradiation intensity (determined by potassium ferrioxalate actinometry and measured in Einstein cm^–2 s^–1),[58] σ is the decadic extinction coefficient (1000 × ε) at 365 nm, and t90% is the time required to consume 90% of the starting material. See Supporting Information Table S1 for the I, σ, and t90% data.

TRPV1 channels = molecular target: T1, TRPV1 channels (Homo sapiens, UniProt Q8NER1); assay: TRPV1 activation on HEK 293 cells, Fluo-4 calcium imaging; format: cell-based
T1 construct: expressed in transfected cells
T1 sequence (Q8NER1 whole entry): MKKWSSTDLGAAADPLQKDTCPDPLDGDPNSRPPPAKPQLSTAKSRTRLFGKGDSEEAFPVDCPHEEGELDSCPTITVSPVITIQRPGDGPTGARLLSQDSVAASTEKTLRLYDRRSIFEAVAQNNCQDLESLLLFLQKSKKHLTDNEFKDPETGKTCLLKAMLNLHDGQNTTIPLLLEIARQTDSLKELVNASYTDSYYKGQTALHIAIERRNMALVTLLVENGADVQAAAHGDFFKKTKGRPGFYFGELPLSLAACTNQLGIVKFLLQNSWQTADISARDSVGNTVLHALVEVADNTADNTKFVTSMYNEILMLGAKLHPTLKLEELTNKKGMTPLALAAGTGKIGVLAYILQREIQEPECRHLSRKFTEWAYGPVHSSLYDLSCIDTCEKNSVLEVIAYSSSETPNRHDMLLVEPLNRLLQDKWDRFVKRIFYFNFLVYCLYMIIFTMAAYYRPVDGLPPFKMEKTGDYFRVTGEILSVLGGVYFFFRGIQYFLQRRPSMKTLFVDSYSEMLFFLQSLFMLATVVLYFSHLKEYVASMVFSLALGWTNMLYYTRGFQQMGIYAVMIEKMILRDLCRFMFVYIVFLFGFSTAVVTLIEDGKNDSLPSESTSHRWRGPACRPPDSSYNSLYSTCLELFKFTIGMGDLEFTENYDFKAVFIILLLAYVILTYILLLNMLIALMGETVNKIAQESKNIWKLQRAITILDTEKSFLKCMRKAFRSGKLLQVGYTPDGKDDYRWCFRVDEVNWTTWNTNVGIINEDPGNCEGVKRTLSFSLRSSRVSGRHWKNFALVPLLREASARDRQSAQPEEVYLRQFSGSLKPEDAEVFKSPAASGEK
Protocol: HCT 116 cells were grown in Dulbecco’s […] medium (DMEM) supplemented with 10% fetal bovine serum (FBS), 1% nonessential amino acids (NEAA), and maintained at 37 °C and 5% CO2. HEK 293 cells stably expressing TRPV1 channels were grown as previously described.[62]
HEK 293 cells (stably expressing TRPV1 channels) were plated on a 35 mm glass-bottom dish (previously coated with poly-D-Lysine) a day before the experiment. A mixture of pluronic F-127 (Molecular Probes) and Fluo-4 AM (50 μg, Life Technologies) dissolved in dimethylsulfoxide (DMSO) (50 μL) was added to Hank’s balanced salt solution (HBSS) and sonicated for 5 min to prepare a solution containing a 0.02% final concentration of each. The solution was then loaded onto the cells growing in the 35 mm glass-bottom dish and incubated for 35–45 min in a humidified CO2 incubator (37 °C, 5% CO2). The cells were washed with HBSS (3 × 2 mL each) and subsequently maintained in HBSS during photoactivation experiments.
An Olympus FluoView FV1000MPE confocal microscope was employed to image and record cells plated onto 35 mm glass-bottom 4-well plates. A 488 nm ion laser excited the dopamine and serotonin sensors dLight 1.2 and GRAB5-HT, respectively, and Fluo-4 calcium dye. FluoView 10-ASW version 4.0 (Olympus), ImageJ-Fiji, and DeltaGraph (Red Rock Software) were used for capturing, extracting, and processing the collected data. Photoactivation was conducted with 405 nm (100% laser power, 1PE) or 720 nm (10% laser power, 24 mW, 2PE) light for MeO-CyHQ-O-DA and MeO-CyHQ-O-5HT or 740 nm (20% laser power, 15 mW light) for MeO-CyHQ-O-VNA and MeO-CyHQ-O-EG. Images were captured by using a 60× immersion lens.
Solutions of MeO-CyHQ-O-VNA or MeO-CyHQ-O-EG were added to HEK 293 cells stably expressing TRPV1 channels and loaded with Fluo-4 in a 35 mm glass-bottom dish. An area near a cell was irradiated with a single short pulse of 405 nm laser light while imaging with the 488 nm laser. Similarly, VNA and eugenol were released through 2PE using 740 nm light.

[5] = HEK 293 cells expressing TRPV1, exposure to 740 nm light, data not shown

Compound | τd (time constant of spontaneous hydrolysis in buffer in the dark at room temperature) [2] | ε365 [3] | λmax [3] | t90% (time required to consume 90% of the starting material) [4] | solubility ([1]; pH 7.2, aqueous buffer) | further results
Cc1cc(COc2cc(CCN)ccc2O)nc2c(C#N)c(O)ccc12.O=C(O)C(F)(F)F [3a, 2-(3-((8-Cyano-7-hydroxy-4-methylquinolin-2-yl)methoxy)-4-hydroxyphenyl)ethan-1-aminium 2,2,2-trifluoroacetate] | nh (No hydrolysis (<5% detected after 7 days)) | 5000 M^–1 cm^–1 | 365 nm | 28.0 s |  | solubility ([1]; aqueous buffer, KMOPS buffer, pH 7.2, read-out: solubility): > 100 µM
N#Cc1c(O)ccc2c(N3CCOCC3)cc(COc3cc(CCN)ccc3O)nc12.O=C(O)C(F)(F)F [3b, 2-(3-((8-Cyano-7-hydroxy-4-morpholinoquinolin-2-yl)methoxy)-4-hydroxyphenyl)ethan-1-aminium 2,2,2-trifluoroacetate] | nh (No hydrolysis (<5% detected after 7 days)) | 4900 M^–1 cm^–1 | 358 nm | 23.2 s | > 100 µM | irradiation time to complete the 1PE photolysis reaction ([4]; 365 nm): less than 1 min
Cc1ccc(-c2cc(COc3cc(CCN)ccc3O)nc3c(C#N)c(O)ccc23)cc1.O=C(O)C(F)(F)F [3d, 2-(3-((8-Cyano-7-hydroxy-4-(p-tolyl)quinolin-2-yl)methoxy)-4-hydroxyphenyl)ethan-1-aminium 2,2,2-trifluoroacetate] | nh (No hydrolysis (<5% detected after 7 days)) | 4800 M^–1 cm^–1 | 372 nm | 76.7 s | 85 µM | solubility ([1]; pH 7.2): slightly lower solubility
COc1cc(-c2cc(COc3cc(CCN)ccc3O)nc3c(C#N)c(O)ccc23)cc(OC)c1OC.O=C(O)C(F)(F)F [3e, 2-(3-((8-Cyano-7-hydroxy-4-(3,4,5-trimethoxyphenyl)quinolin-2-yl)methoxy)-4-hydroxyphenyl)ethan-1-aminium 2,2,2-trifluoroacetate] | nh (No hydrolysis (<5% detected after 7 days)) | 5210 M^–1 cm^–1 | 372 nm | 188.7 s | > 100 µM | 
CCCN(CCc1cccs1)[C@@H]1CCc2c(cccc2OCc2cc(OC)c3ccc(O)c(C#N)c3n2)C1 [5c, (R)-7-Hydroxy-4-methoxy-2-(((6-(propyl(2-(thiophen-2-yl)ethyl)amino)-5,6,7,8-tetrahydronaphthalen-1-yl)oxy)methyl)quinoline-8-carbonitrile] | nh (No hydrolysis (<5% detected after 7 days)) | 2300 M^–1 cm^–1 | 343 nm | 143.9 s | > 100 µM | 
CCCCCCCCC(=O)NCc1ccc(OCc2cc(OC)c3ccc(O)c(C#N)c3n2)c(OC)c1 [6c, N-(4-((8-Cyano-7-hydroxy-4-methoxyquinolin-2-yl)methoxy)-3-methoxybenzyl)nonanamide] | nh (No hydrolysis (<5% detected after 7 days)) | 3375 M^–1 cm^–1 | 341 nm | 23.1 s | 77 µM (≈ 38.9 µg/mL) | Fluo-4 calcium response after photoactivation (1PE) (TRPV1 channels; HEK 293 cells expressing TRPV1, 2.5 μM, 50 ms pulse of 405 nm light): robust response; Fluo-4 calcium response after photoactivation (2PE) (TRPV1 channels; HEK 293 cells expressing TRPV1, 5 μM, 250 ms pulse of 740 nm light): robust response
C=CCc1ccc(OCc2cc(OC)c3ccc(O)c(C#N)c3n2)c(OC)c1 [7c, 2-((4-Allyl-2-methoxyphenoxy)methyl)-7-hydroxy-4-methoxyquinoline-8-carbonitrile] | nh (No hydrolysis (<5% detected after 7 days)) | 7540 M^–1 cm^–1 | 351 nm | 19.5 s | > 100 µM | Fluo-4 calcium response after photoactivation (1PE) (TRPV1 channels; HEK 293 cells expressing TRPV1, 5 μM, 500 ms pulse of 405 nm light): EG was released; Fluo-4 calcium response after photoactivation (2PE) (TRPV1 channels; HEK 293 cells expressing TRPV1, 5 μM, 500 ms pulse of 740 nm light): sufficient response
C=CCc1ccc(OCc2ccc3ccc(O)c(C#N)c3n2)c(OC)c1 [CyHQ-EG, reference compound] |  |  |  |  |  | Fluo-4 calcium response after photoactivation (2PE) (TRPV1 channels; [5]): did not induce any response
CCCCCCCCC(=O)NCc1ccc(OCc2ccc3ccc(O)c(C#N)c3n2)c(OC)c1 [CyHQ-VNA, reference compound] |  |  |  |  |  | Fluo-4 calcium response after photoactivation (2PE) (TRPV1 channels; [5]): did not induce any response
CCCCCCCCC(=O)NCc1ccc(O)c(OC)c1 [VNA, N-vanillyl-nonanoylamide, reference compound] |  |  |  |  |  | relative potency as activator of TRPV1 channels (VNA versus EG) (TRPV1 channels; inferred from concentration and pulse duration needed for release, 405 nm): more potent activator of TRPV1 channels
